Measurements published in ChEMBL document CHEMBL1201862, “PubChem BioAssay data set” (2004).
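Compound exposure: 48 hours, 5 concentrations, 96-well plates. GI50 is the concentration that inhibits growth by half.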 The source made the active and inactive calls. Rule as the data show it: active = GI50 up to about 1.1 µM and inactive = higher.

How the values were obtained:
Experiment in all cases: NCI tumour cell line growth inhibition, 48 h
[1] = tested on: 786-0
[2] = tested on: A498
[3] = tested on: A549
[4] = tested on: ACHN
[5] = tested on: CAKI-1
[6] = tested on: CCRF-CEM
[7] = tested on: COLO 205
[8] = tested on: DLD-1
[9] = tested on: DMS-114
[10] = tested on: DMS-273
[11] = tested on: EKVX
[12] = tested on: HCC 2998
[13] = tested on: HCT-116
[14] = tested on: HCT-15
[15] = tested on: HL-60
[16] = tested on: HOP-18
[17] = tested on: HOP-62
[18] = tested on: HOP-92
[19] = tested on: HT-29
[20] = tested on: IGROV-1
[21] = tested on: K562
[22] = tested on: KM-20L2
[23] = tested on: KM12
[24] = tested on: LOX IMVI
[25] = tested on: LXFL 529
[26] = tested on: M14
[27] = tested on: M19-MEL
[28] = tested on: MOLT-4
[29] = tested on: Malme-3M
[30] = tested on: NCI-H226
[31] = tested on: NCI-H23
[32] = tested on: NCI-H460
[33] = tested on: NCI-H522
[34] = tested on: OVCAR-3
[35] = tested on: OVCAR-4
[36] = tested on: OVCAR-5
[37] = tested on: OVCAR-8
[38] = tested on: RPMI-8226
[39] = tested on: RXF 393
[40] = tested on: RXF 631
[41] = tested on: SF-268
[42] = tested on: SF-295
[43] = tested on: SF-539
[44] = tested on: SK-MEL-28
[45] = tested on: SK-MEL-2
[46] = tested on: SK-MEL-5
[47] = tested on: SK-OV-3
[48] = tested on: SN12C
[49] = tested on: SNB-19
[50] = tested on: SNB-75
[51] = tested on: SNB-78
[52] = tested on: SR
[53] = tested on: SW-620
[54] = tested on: TK-10
[55] = tested on: U-251
[56] = tested on: UACC-257
[57] = tested on: UACC-62
[58] = tested on: UO-31
[59] = tested on: XF498

In the case of CCCCCCCCOCC(O)CO (stereo not drawn), the GI50 [1] is reported as > 100 µM (inactive), the GI50 [2] is reported as > 100 µM (inactive) and the GI50 [3] is reported as > 100 µM (inactive). The GI50 [4] was > 100 µM (inactive), the GI50 [5] was > 100 µM (inactive) and the GI50 [6] was 4.52 µM (inactive). For the same molecule, the GI50 [7] was > 100 µM (inactive), the GI50 [8] was > 100 µM (inactive) and the GI50 [9] was > 100 µM (inactive). For the same molecule, the GI50 [10] was > 100 µM (inactive), the GI50 [11] was > 100 µM (inactive) and the GI50 [12] was 89.5 µM (inactive). For the same molecule, the GI50 [13] was > 100 µM (inactive), the GI50 [14] was > 100 µM and the GI50 [15] was > 100 µM (inactive). For the same molecule, the GI50 [16] was > 100 µM (inactive), the GI50 [17] was > 100 µM (inactive) and the GI50 [18] was 41.8 µM (inactive). The GI50 [19] was > 100 µM (inactive), the GI50 [20] was > 100 µM (inactive) and the GI50 [21] was > 100 µM (inactive). The GI50 [22] was > 100 µM (inactive), the GI50 [23] was 29.5 µM (inactive) and the GI50 [24] was > 100 µM (inactive). For the same molecule, the GI50 [25] was > 100 µM (inactive), the GI50 [26] was > 100 µM (inactive) and the GI50 [27] was > 100 µM (inactive). For the same molecule, the GI50 [28] was 44.7 µM (inactive), the GI50 [29] was > 100 µM (inactive) and the GI50 [30] was 84.9 µM (inactive). For the same molecule, the GI50 [31] was > 100 µM (inactive), the GI50 [32] was > 100 µM (inactive) and the GI50 [33] was 28 µM (inactive). For the same molecule, the GI50 [34] was > 100 µM (inactive), the GI50 [35] was > 100 µM (inactive) and the GI50 [36] was > 100 µM (inactive). For the same molecule, the GI50 [37] was > 100 µM (inactive), the GI50 [38] was 44.6 µM (inactive) and the GI50 [39] was > 100 µM (inactive). The GI50 [40] was > 100 µM (inactive), the GI50 [41] was > 100 µM (inactive) and the GI50 [42] was > 100 µM (inactive). The GI50 [43] was > 100 µM (inactive), the GI50 [44] was > 100 µM (inactive) and the GI50 [45] was > 100 µM (inactive). For the same molecule, the GI50 [46] was > 100 µM (inactive), the GI50 [47] was > 100 µM (inactive) and the GI50 [48] was > 100 µM (inactive). The GI50 [49] was > 100 µM (inactive), the GI50 [50] was 43.3 µM (inactive) and the GI50 [51] was > 100 µM (inactive). The GI50 [52] was 45.9 µM (inactive), the GI50 [53] was > 100 µM (inactive) and the GI50 [54] was > 100 µM (inactive). The GI50 [55] was > 100 µM (inactive), the GI50 [56] was > 100 µM (inactive) and the GI50 [57] was > 100 µM (inactive). The GI50 [58] was > 100 µM (inactive) and the GI50 [59] was 45.9 µM (inactive).
In the case of C=CC1(c2ccccc2Cl)N/C(=C/OCC)CO1 (stereo not drawn), the GI50 [1] is reported as 51.5 µM (inactive), the GI50 [2] is reported as > 100 µM (inactive) and the GI50 [3] is reported as 38.2 µM (inactive). The GI50 [4] was > 100 µM (inactive), the GI50 [5] was > 100 µM (inactive) and the GI50 [6] was > 100 µM (inactive). The GI50 [7] was 88.3 µM (inactive), the GI50 [8] was 33.5 µM (inactive) and the GI50 [9] was > 100 µM (inactive). For the same molecule, the GI50 [10] was > 100 µM (inactive), the GI50 [11] was > 100 µM (inactive) and the GI50 [12] was > 100 µM (inactive). For the same molecule, the GI50 [13] was 90.2 µM (inactive), the GI50 [14] was > 100 µM and the GI50 [15] was 47.9 µM (inactive). For the same molecule, the GI50 [16] was > 100 µM (inactive), the GI50 [17] was > 100 µM (inactive) and the GI50 [18] was > 100 µM (inactive). The GI50 [19] was > 100 µM (inactive), the GI50 [20] was > 100 µM (inactive) and the GI50 [21] was > 100 µM (inactive). For the same molecule, the GI50 [22] was > 100 µM (inactive), the GI50 [23] was > 100 µM (inactive) and the GI50 [24] was 23.5 µM (inactive). The GI50 [25] was > 100 µM (inactive), the GI50 [26] was > 100 µM (inactive) and the GI50 [27] was > 100 µM (inactive). The GI50 [28] was > 100 µM (inactive), the GI50 [29] was > 100 µM (inactive) and the GI50 [30] was > 100 µM (inactive). The GI50 [31] was > 100 µM (inactive), the GI50 [32] was > 100 µM (inactive) and the GI50 [33] was > 100 µM (inactive). The GI50 [34] was > 100 µM (inactive), the GI50 [35] was > 100 µM (inactive) and the GI50 [36] was > 100 µM (inactive). For the same molecule, the GI50 [37] was > 100 µM (inactive), the GI50 [38] was 24.7 µM (inactive) and the GI50 [39] was 10.3 µM (inactive). For the same molecule, the GI50 [40] was > 100 µM (inactive), the GI50 [41] was > 100 µM (inactive) and the GI50 [42] was > 100 µM (inactive). The GI50 [43] was > 100 µM (inactive), the GI50 [44] was > 100 µM (inactive) and the GI50 [45] was > 100 µM (inactive). The GI50 [46] was > 100 µM (inactive), the GI50 [47] was > 100 µM (inactive) and the GI50 [48] was > 100 µM (inactive). For the same molecule, the GI50 [49] was > 100 µM (inactive), the GI50 [50] was 36.6 µM (inactive) and the GI50 [51] was > 100 µM (inactive). The GI50 [52] was > 100 µM (inactive), the GI50 [53] was 13.2 µM (inactive) and the GI50 [54] was > 100 µM (inactive). The GI50 [55] was > 100 µM (inactive), the GI50 [56] was > 100 µM (inactive) and the GI50 [57] was > 100 µM (inactive). The GI50 [58] was > 100 µM (inactive) and the GI50 [59] was > 100 µM (inactive).
